From US20260265184A1, “DEGRADABLE CROSSLINKING AGENT” (NAGASE CHEMTEX CORPORATION, priority 2023, published 2026)

Assays:
Type in all cases: physicochemical
[1] = Solvent solubility evaluation of the degradable cross-linking agents; details: for Solvent solubility, Isopropanol / Solvent solubility, Methanol / Solvent solubility, Methylisobutyl ketone / Solvent solubility, N-methylpyrrolidone / Solvent solubility, Propylene glycol monomethyl ether: 0.5 mL solvent added to 2 mg, visual, room temperature, then heat gun; for Solvent solubility, overall assessment in words: summary over the solvents of Tables 1 and 2
Description: The degree of dissolution was visually observed. When an undissolved portion remained at room temperature, the mixture was sufficiently heated with a heat gun and then visually observed again. The scoring was as follows: 3 points for those that completely dissolved at room temperature; 2 points for those in which an undissolved portion remained at room temperature but completely dissolved after heating; 1 point for those in which a slight amount of an undissolved portion remained after heating; and 0 points for those in which a large amount of an undissolved portion remained after heating. Here, the degradable cross-linking agents in liquid form were evaluated for compatibility with the solvents.

[2] = Degradation of the compound on adding sodium hypochlorite aqueous solution; details: 3% sodium hypochlorite aqueous solution added to the compound
[3] = Solubility of the degradable cross-linked product (cured film) in water / organic solvent
Method: The solution was applied onto a glass substrate to give a cured film thickness of 0.1 μm, and then dried and cured at 150° C. for 10 minutes to obtain a degradable cross-linked product.

[4] = Degradation of the degradable cross-linked product on immersion in oxidizing agent solution
Method: The method for degrading a degradable cross-linked product according to the present invention includes bringing the degradable cross-linked product into contact with an aqueous solution containing an oxidizing agent at 100° C. or lower.
The conditions for bringing the degradable cross-linked product into contact with the aqueous solution containing the oxidizing agent include a temperature of 100° C. or lower, preferably of 15° C. to 50° C. The conditions preferably include a duration of 60 minutes or shorter, more preferably 10 minutes or shorter. If necessary, the cross-linked product may be shaken or stirred during the reaction with the oxidizing agent. Non-limiting specific examples of the method for bringing the degradable cross-linked product into contact with the aqueous solution containing the oxidizing agent include immersing the degradable cross-linked product in the aqueous solution containing the oxidizing agent, or spraying or adding dropwise the aqueous solution containing the oxidizing agent onto the degradable cross-linked product.
An amount of 0.3 g of the compound of formula (A), 0.1 g of poly(methylhydrosiloxane), and 4.0 mg of a platinum catalyst (trade name: CAT-PL-50T, available from Shin-Etsu Chemical Co., Ltd.) were added to 40 g of dimethyl sulfoxide to obtain a thermosetting composition solution. The solution was applied onto a glass substrate to give a cured film thickness of 0.1 μm, and then dried and cured at 150° C. for 10 minutes to obtain a degradable cross-linked product.

[5] = cured film immersed in 3% sodium hypochlorite aqueous solution

| SMILES | Solvent solubility, Isopropanol [1] | Solvent solubility, Methanol [1] | Solvent solubility, Methylisobutyl ketone [1] | Solvent solubility, N-methylpyrrolidone [1] | Solvent solubility, Propylene glycol monomethyl ether [1] | Solvent solubility, overall assessment in words ([1]; listed as Example 8) | Degradation of the compound by oxidizing agent [2] | Solubility of the degradable cross-linked product made with the compound ([3]; in isopropanol and water) | Degradation of the degradable cross-linked product made with the compound ([4]; cured film immersed in 2-fold dilution of a 3% sodium hypochlorite aqueous solution with isopropanol) | Solubility of the degradable cross-linked product made with the compound ([3]; in water) | Degradation of the degradable cross-linked product made with the compound [4, 5] | Solvent solubility, overall assessment in words ([1]; listed as Example 9) | Solubility of the degradable cross-linked product made with the compound ([3]; in THF and water) | Degradation of the degradable cross-linked product made with the compound ([4]; cured film immersed in 3-fold dilution of a 3% sodium hypochlorite aqueous solution with THE) | Solvent solubility, overall assessment in words [1] |
| --- | --- | --- | --- | --- | --- | --- | --- | --- | --- | --- | --- | --- | --- | --- | --- |
| C=C(C)C(=O)OCCNC(=O)NNC(=O)c1cc(O)cc(O)c1 [Formula (I)] | 0 | 3 | 0 | 3 | 0 | slightly less soluble than the compound of Example 3 but exhibited an acceptable level of solubility | foaming and degradation of the compound were observed | insoluble | foaming and removal of the product from the substrate were observed | – | – | – | – | – | – |
| C=CCNC(=O)NNC(=O)CCCCCCCCC(=O)NNC(=O)NCC=C [Formula (B)] | 1 | 2 | 0 | 3 | 0 | – | foaming and degradation of the compound were observed | – | – | insoluble | foaming and removal of the product from the substrate were observed | – | – | – | – |
| C=CCOC(=O)NNC(=O)CCCO [Formula (G)] | 3 | 3 | 2 | 3 | 3 | – | foaming and degradation of the compound were observed | – | – | insoluble | foaming and removal of the product from the substrate were observed | – | – | – | – |
| C=CCOC(=O)NNC(=O)CCCCCCCCC(=O)NNC(=O)OCC=C [Formula (D)] | 3 | 3 | 2 | 3 | 3 | – | foaming and degradation of the compound were observed | – | – | insoluble | foaming and removal of the product from the substrate were observed | – | – | – | – |
| O=C(CCS)NNC(=O)NCCCCCCNC(=O)N(CCCCCCNC(=O)NNC(=O)CCS)C(=O)NCCCCCCNC(=O)NNC(=O)CCS [Formula (J)] | 1 | 1 | 0 | 1 | 0 | – | foaming and degradation of the compound were observed | – | – | insoluble | foaming and removal of the product from the substrate were observed | slightly less soluble than the compound of Example 3 but exhibited an acceptable level of solubility | – | – | – |
| C=CCOC(=O)NNC(=O)CCC(NC(=O)NNC(=O)CCCC(=O)NNC(=O)NC(CCC(=O)NNC(=O)OCC=C)C(=O)NNC(=O)OCC=C)C(=O)NNC(=O)OCC=C (stereo not drawn) [Formula (L)] | 1 | 2 | 1 | 3 | 3 | – | foaming and degradation of the compound were observed | – | – | insoluble | foaming and removal of the product from the substrate were observed | – | – | – | – |
| O=C(CCCCCOC(=O)NNC(=O)OCCO)NNC(=O)c1cccc(C(=O)NNC(=O)CCCCCOC(=O)NNC(=O)OCCO)c1 [Formula (M)] | 0 | 3 | 0 | 3 | 3 | – | foaming and degradation of the compound were observed | – | – | – | – | – | insoluble | foaming and removal of the product from the substrate were observed | – |
| C=CCOC(=O)NNC(=O)NCCCCCCNC(=O)NNC(=O)OCC=C [Formula (C)] | 1 | 2 | 0 | 3 | 2 | – | foaming and degradation of the compound were observed | – | – | insoluble | foaming and removal of the product from the substrate were observed | – | – | – | – |
| C=CCCC(=O)NNC(=O)CCCCCCCCC(=O)NNC(=O)OCC=C [Formula (A), reference compound] | 0 | 0 | 0 | 0 | 0 | – | foaming and degradation of the compound were observed | – | – | insoluble | foaming and removal of the product from the substrate were observed | – | – | – | poorly soluble in all the solvents |
